# Literature values, collected in patent publication US20210186070A1, “STEVIA EXTRACT CONTAINING SELECTED STEVIOL GLYCOSIDES AS FLAVOR, SALTY AND SWEETNESS PROFILE MODIFIER” (PureCircle USA Inc., priority 2013, published 2021).
smiles,measurement,value
C=C1C[C@@]23CC[C@H]4[C@@](C)(CCC[C@@]4(C)C(=O)O[C@@H]4O[C@H](CO)[C@@H](O)[C@H](O)[C@H]4O)[C@@H]2CC[C@]1(O[C@@H]1O[C@H](CO)[C@@H](O)[C@H](O[C@@H]2O[C@H](CO)[C@@H](O)[C@H](O)[C@H]2O)[C@H]1O[C@@H]1O[C@H](CO)[C@@H](O)[C@H](O)[C@H]1O)C3 [Rebaudioside A],"sweetness potency, times higher than sucrose",around 300 times
